# Assay results: PubChem BioAssay (NCI)
#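 Grown in 96-well plates, cells were treated for 48 hours with each compound at five concentrations. Insufficient inhibition: endpoint recorded as highest concentration tested. GI50 marks 50% less growth. The concentration for full growth arrest is given as TGI.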
# Experiments:
# Experiment in all cases: NCI tumour cell line growth inhibition, 48 h
# 786-0 renal = tested on: 786-0 renal
# A498 renal = tested on: A498 renal
# A549 NSCLC = tested on: A549 NSCLC
# ACHN renal = tested on: ACHN renal
# BT-549 breast = tested on: BT-549 breast
# CAKI-1 renal = tested on: CAKI-1 renal
# CCRF-CEM leukemia = tested on: CCRF-CEM leukemia
# COLO 205 colon = tested on: COLO 205 colon
# DU-145 prostate = tested on: DU-145 prostate
# EKVX NSCLC = tested on: EKVX NSCLC
# HCC-2998 colon = tested on: HCC-2998 colon
# HCT-116 colon = tested on: HCT-116 colon
# HCT-15 colon = tested on: HCT-15 colon
# HL-60(TB) leukemia = tested on: HL-60(TB) leukemia
# HOP-62 NSCLC = tested on: HOP-62 NSCLC
# HOP-92 NSCLC = tested on: HOP-92 NSCLC
# HS 578T breast = tested on: HS 578T breast
# HT29 colon = tested on: HT29 colon
# IGROV1 ovarian = tested on: IGROV1 ovarian
# K-562 leukemia = tested on: K-562 leukemia
# KM12 colon = tested on: KM12 colon
# LOX IMVI melanoma = tested on: LOX IMVI melanoma
# M14 melanoma = tested on: M14 melanoma
# MALME-3M melanoma = tested on: MALME-3M melanoma
# MCF7 breast = tested on: MCF7 breast
# MDA-MB-231 breast = tested on: MDA-MB-231 breast
# MDA-MB-435 = tested on: MDA-MB-435
# MOLT-4 leukemia = tested on: MOLT-4 leukemia
# NCI-H226 lung = tested on: NCI-H226 lung
# NCI-H23 lung = tested on: NCI-H23 lung
# NCI-H460 lung = tested on: NCI-H460 lung
# NCI-H522 lung = tested on: NCI-H522 lung
# NCI/ADR-RES ovarian = tested on: NCI/ADR-RES ovarian
# OVCAR-3 ovarian = tested on: OVCAR-3 ovarian
# OVCAR-4 ovarian = tested on: OVCAR-4 ovarian
# OVCAR-5 ovarian = tested on: OVCAR-5 ovarian
# OVCAR-8 ovarian = tested on: OVCAR-8 ovarian
# PC-3 prostate = tested on: PC-3 prostate
# RPMI-8226 leukemia = tested on: RPMI-8226 leukemia
# RXF 393 renal = tested on: RXF 393 renal
# SF-268 CNS = tested on: SF-268 CNS
# SF-295 CNS = tested on: SF-295 CNS
# SF-539 CNS = tested on: SF-539 CNS
# SK-MEL-2 melanoma = tested on: SK-MEL-2 melanoma
# SK-MEL-28 melanoma = tested on: SK-MEL-28 melanoma
# SK-MEL-5 melanoma = tested on: SK-MEL-5 melanoma
# SK-OV-3 ovarian = tested on: SK-OV-3 ovarian
# SN12C renal = tested on: SN12C renal
# SNB-19 CNS = tested on: SNB-19 CNS
# SNB-75 CNS = tested on: SNB-75 CNS
# SW-620 colon = tested on: SW-620 colon
# T-47D breast = tested on: T-47D breast
# TK-10 renal = tested on: TK-10 renal
# U251 CNS = tested on: U251 CNS
# UACC-257 melanoma = tested on: UACC-257 melanoma
# UACC-62 melanoma = tested on: UACC-62 melanoma
# UO-31 renal = tested on: UO-31 renal
structure (smiles),measurement,setting,value
CC1=C(C)C(=O)C(Nc2cccc(C(F)(F)F)c2)=C(Cl)C1=O,GI50,786-0 renal,10.6 µM
same,TGI,786-0 renal,24.3 µM
same,GI50,A498 renal,13.7 µM
same,TGI,A498 renal,45.2 µM
same,GI50,A549 NSCLC,13.3 µM
same,TGI,A549 NSCLC,> 100 µM
same,GI50,ACHN renal,1.73 µM
same,TGI,ACHN renal,3.18 µM
same,GI50,BT-549 breast,8.56 µM
same,TGI,BT-549 breast,22.2 µM
same,GI50,CAKI-1 renal,1.94 µM
same,TGI,CAKI-1 renal,9.11 µM
same,GI50,CCRF-CEM leukemia,1.93 µM
same,TGI,CCRF-CEM leukemia,> 100 µM
same,GI50,COLO 205 colon,13 µM
same,TGI,COLO 205 colon,29.3 µM
same,GI50,DU-145 prostate,15.6 µM
same,TGI,DU-145 prostate,34.8 µM
same,GI50,EKVX NSCLC,1.49 µM
same,TGI,EKVX NSCLC,3.73 µM
same,GI50,HCC-2998 colon,5.88 µM
same,TGI,HCC-2998 colon,18.4 µM
same,GI50,HCT-116 colon,1.93 µM
same,TGI,HCT-116 colon,3.99 µM
same,GI50,HCT-15 colon,2.2 µM
same,TGI,HCT-15 colon,5.05 µM
same,GI50,HL-60(TB) leukemia,2.34 µM
same,TGI,HL-60(TB) leukemia,6.54 µM
same,GI50,HOP-62 NSCLC,11.5 µM
same,TGI,HOP-62 NSCLC,27.6 µM
same,GI50,HOP-92 NSCLC,1.5 µM
same,TGI,HOP-92 NSCLC,3.04 µM
same,GI50,HS 578T breast,6 µM
same,TGI,HS 578T breast,64.4 µM
same,GI50,HT29 colon,7.29 µM
same,TGI,HT29 colon,51.8 µM
same,GI50,IGROV1 ovarian,1.42 µM
same,TGI,IGROV1 ovarian,3.19 µM
same,GI50,K-562 leukemia,2.4 µM
same,TGI,K-562 leukemia,> 100 µM
same,GI50,KM12 colon,3.58 µM
same,TGI,KM12 colon,25.7 µM
same,GI50,LOX IMVI melanoma,1.69 µM
same,TGI,LOX IMVI melanoma,3.32 µM
same,GI50,M14 melanoma,9.96 µM
same,TGI,M14 melanoma,32.7 µM
same,GI50,MALME-3M melanoma,1.98 µM
same,TGI,MALME-3M melanoma,6.04 µM
same,GI50,MCF7 breast,1.71 µM
same,TGI,MCF7 breast,3.79 µM
same,GI50,MDA-MB-231 breast,1.59 µM
same,TGI,MDA-MB-231 breast,3.28 µM
same,GI50,MDA-MB-435,5.98 µM
same,TGI,MDA-MB-435,19.5 µM
same,GI50,MOLT-4 leukemia,2.22 µM
same,TGI,MOLT-4 leukemia,> 100 µM
same,GI50,NCI-H226 lung,10.8 µM
same,TGI,NCI-H226 lung,34.8 µM
same,GI50,NCI-H23 lung,6.87 µM
same,TGI,NCI-H23 lung,24 µM
same,GI50,NCI-H460 lung,11.6 µM
same,TGI,NCI-H460 lung,32.2 µM
same,GI50,NCI-H522 lung,2.24 µM
same,TGI,NCI-H522 lung,5.66 µM
same,GI50,NCI/ADR-RES ovarian,3.16 µM
same,TGI,NCI/ADR-RES ovarian,42.3 µM
same,GI50,OVCAR-3 ovarian,2.31 µM
same,TGI,OVCAR-3 ovarian,5.58 µM
same,GI50,OVCAR-4 ovarian,1.58 µM
same,TGI,OVCAR-4 ovarian,2.97 µM
same,GI50,OVCAR-5 ovarian,1.98 µM
same,TGI,OVCAR-5 ovarian,4.13 µM
same,GI50,OVCAR-8 ovarian,2.68 µM
same,TGI,OVCAR-8 ovarian,6.89 µM
same,GI50,PC-3 prostate,2.67 µM
same,TGI,PC-3 prostate,12.8 µM
same,GI50,RPMI-8226 leukemia,1.32 µM
same,TGI,RPMI-8226 leukemia,7.32 µM
same,GI50,RXF 393 renal,1.49 µM
same,TGI,RXF 393 renal,2.85 µM
same,GI50,SF-268 CNS,4.99 µM
same,TGI,SF-268 CNS,28.6 µM
same,GI50,SF-295 CNS,6.55 µM
same,TGI,SF-295 CNS,24 µM
same,GI50,SF-539 CNS,2.4 µM
same,TGI,SF-539 CNS,6.61 µM
same,GI50,SK-MEL-2 melanoma,8.26 µM
same,TGI,SK-MEL-2 melanoma,21.7 µM
same,GI50,SK-MEL-28 melanoma,3.36 µM
same,TGI,SK-MEL-28 melanoma,10.8 µM
same,GI50,SK-MEL-5 melanoma,4.14 µM
same,TGI,SK-MEL-5 melanoma,15.7 µM
same,GI50,SK-OV-3 ovarian,13 µM
same,TGI,SK-OV-3 ovarian,50.7 µM
same,GI50,SN12C renal,4.25 µM
same,TGI,SN12C renal,23.4 µM
same,GI50,SNB-19 CNS,5.83 µM
same,TGI,SNB-19 CNS,23.4 µM
same,GI50,SNB-75 CNS,1.16 µM
same,TGI,SNB-75 CNS,13.6 µM
same,GI50,SW-620 colon,2.09 µM
same,TGI,SW-620 colon,4.73 µM
same,GI50,T-47D breast,1.17 µM
same,TGI,T-47D breast,3.6 µM
same,GI50,TK-10 renal,19 µM
same,TGI,TK-10 renal,37 µM
same,GI50,U251 CNS,4.45 µM
same,TGI,U251 CNS,17.9 µM
same,GI50,UACC-257 melanoma,2.61 µM
same,TGI,UACC-257 melanoma,6.72 µM
same,GI50,UACC-62 melanoma,3.46 µM
same,TGI,UACC-62 melanoma,16.1 µM
same,GI50,UO-31 renal,1.46 µM
same,TGI,UO-31 renal,4.18 µM
